From ChEMBL document CHEMBL5728216, “Cyclopropyl fused thiazine derivatives as beta-secretase inhibitors and methods of use” (2021)

How the values were obtained:
Beta-secretase 1 = Beta-secretase 1 (Homo sapiens, UniProt P56817); test: In Vitro Enzymatic FRET (Fluorescence Resonance Energy Transfer) Assays: The cDNAs for both human recombinant BACE1 and 2 with C-terminal 6-His Tags were cloned into transient protein expression vectors, which were subsequently transfected into mammalian cell lines. These recombinant proteins were further purified using Ni-NTA affinity chromatography (Qiagen). The assay buffer used in these screens was 0.05 M acetate, pH 4.5, 8% DMSO final, 100 μM genapol (which is a nonionic detergent, below its Critical Micelle Concentration). The β-secretase enzyme (0.02 nM for BACE1 and 0.64 nM for BACE2), which was pre-incubated for one hour with the test compound, typically in about 1 uL of DMSO according to a serial dilution, was added thereto. The assay was effectively started by the addition of FRET substrate (50 nM) and the combination was incubated for one hour. The FRET assay was terminated by the addition of tris buffer, which raised the pH to neutrality, and the fluorescence was determined. The FRET substrate was a peptide with commercially available fluorophore and quencher, on opposite sides of the BACE cleavage site. The specific FRET substrate used in this assay was made by Amgen in-house. […]
Beta-secretase 2 = molecular target: T1, Beta-secretase 2 (Homo sapiens, UniProt Q9Y5Z0); test: These recombinant proteins were further purified using Ni-NTA affinity chromatography (Qiagen).
T1 sequence (Q9Y5Z0 whole entry): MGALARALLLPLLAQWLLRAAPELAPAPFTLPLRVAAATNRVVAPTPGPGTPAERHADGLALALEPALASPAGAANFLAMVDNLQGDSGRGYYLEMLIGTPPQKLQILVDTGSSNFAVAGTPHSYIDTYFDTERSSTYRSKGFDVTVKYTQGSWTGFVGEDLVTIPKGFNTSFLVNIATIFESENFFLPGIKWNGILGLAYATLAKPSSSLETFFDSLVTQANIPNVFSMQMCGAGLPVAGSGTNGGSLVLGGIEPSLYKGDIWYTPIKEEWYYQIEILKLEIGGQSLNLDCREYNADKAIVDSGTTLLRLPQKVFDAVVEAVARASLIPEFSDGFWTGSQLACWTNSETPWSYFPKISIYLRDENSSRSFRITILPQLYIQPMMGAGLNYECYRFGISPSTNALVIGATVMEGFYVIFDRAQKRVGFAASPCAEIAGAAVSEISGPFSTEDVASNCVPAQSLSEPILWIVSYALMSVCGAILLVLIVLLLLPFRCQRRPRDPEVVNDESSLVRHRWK

Cathepsin D = Cathepsin D (Homo sapiens, UniProt P07339); test: In Vitro Enzymatic FRET Assay: Recombinant CatD was expressed in CHO cells. The assay buffer for CatD was 0.05 M citrate pH 3.5, 10% DMSO final, 5 mM CHAPS. The CatD enzyme (9 nM) was pre-incubated for one hour with inhibitors, typically in about 1 uL of DMSO according to a serial dilution, is added thereto. The assays was effectively started by the addition of different FRET substrates (20 nM for CatD) and the combination was incubated for one hour. The FRET assay was terminated with by addition of tris buffer, which raises the pH to neutrality, and the fluorescence was determined. The FRET substrate was a peptide with commercially available fluorophore and quencher, on opposite sides of the CatD cleavage site. The CatD substrate peptide sequence was based on sequence #1 of Table 1 from Gulnik et al., FEBS Lett. 413(2):379-384 (1997). Proteolytic cleavage of the FRET substrate released quenching of fluorescence (CatD excitation 500 nm and emission 580 nm).; assay type: cell-based
Cathepsin D, sequence (P07339 65-162 limits assumed): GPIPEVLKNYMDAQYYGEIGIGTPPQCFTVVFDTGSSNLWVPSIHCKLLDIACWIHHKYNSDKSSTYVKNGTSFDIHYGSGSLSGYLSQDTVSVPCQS
Cathepsin D, sequence (P07339 169-412 limits assumed): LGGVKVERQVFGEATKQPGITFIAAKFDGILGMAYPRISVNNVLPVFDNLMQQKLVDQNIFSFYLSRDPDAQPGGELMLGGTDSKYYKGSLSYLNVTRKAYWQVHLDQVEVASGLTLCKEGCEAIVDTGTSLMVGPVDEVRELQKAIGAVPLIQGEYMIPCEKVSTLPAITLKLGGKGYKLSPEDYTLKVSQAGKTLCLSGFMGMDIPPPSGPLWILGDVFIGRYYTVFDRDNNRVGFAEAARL

Beta-secretase 1, sequence (P56817 whole entry): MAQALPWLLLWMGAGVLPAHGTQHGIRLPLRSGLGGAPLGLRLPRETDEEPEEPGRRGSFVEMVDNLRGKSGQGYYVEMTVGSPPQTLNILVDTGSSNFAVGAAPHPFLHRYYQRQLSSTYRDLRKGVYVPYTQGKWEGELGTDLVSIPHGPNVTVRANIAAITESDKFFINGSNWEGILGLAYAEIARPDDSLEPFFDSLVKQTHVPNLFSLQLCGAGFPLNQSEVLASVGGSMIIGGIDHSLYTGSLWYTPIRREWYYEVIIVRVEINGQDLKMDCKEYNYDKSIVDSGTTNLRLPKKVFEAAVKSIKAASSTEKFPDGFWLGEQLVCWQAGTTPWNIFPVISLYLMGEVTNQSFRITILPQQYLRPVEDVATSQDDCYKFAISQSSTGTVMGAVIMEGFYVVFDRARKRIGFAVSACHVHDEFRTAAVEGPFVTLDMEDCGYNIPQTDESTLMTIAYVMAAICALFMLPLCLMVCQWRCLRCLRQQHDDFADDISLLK

## COC[C@]12CC1[C@@](C)(c1cc(C#Cc3ncc(Cl)cc3C)ccc1F)N=C(N)S2 (stereo partly drawn)
Beta-secretase 1
  IC50: 0.129 µM
Beta-secretase 2
  IC50: 0.613 µM
Cathepsin D
  IC50: > 400 µM
